For one assay, the target named is T1, pSTAT3 (pY705-STAT3) (Homo sapiens, UniProt P40763).
T1 construct: host or cells: cryopreserved PBMC
In words: MSD-pSTAT-PBMC Assay (pSTAT3, IL-6 stimulated). The settings on record: PBMC, compound 3 hrs, then 10 ng/mL IL-6 for 10 min; MSD pY705-STAT3; read-out: pSTAT3. The class given is cell-based. The method, boiled down: (§1)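 Phospho-STAT levels captured on anti-STAT3 or anti-STAT6 plates and detected with anti-pY705 or anti-pY641 antibodies (MSD read-out). Cryopreserved human PBMCs received compound for 3 h before a 10 min pulse of IL-6 (10 ng/mL, STAT3) or IL-4 (1 ng/mL, STAT6). IC50 fitted after unstimulated-background subtraction and DMSO normalization.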

The next assay addresses T2, pSTAT6 (pY641-STAT6) (Homo sapiens, UniProt P42226).
T2 construct: host or cells: cryopreserved PBMC
T2 sequence (P42226 1-847): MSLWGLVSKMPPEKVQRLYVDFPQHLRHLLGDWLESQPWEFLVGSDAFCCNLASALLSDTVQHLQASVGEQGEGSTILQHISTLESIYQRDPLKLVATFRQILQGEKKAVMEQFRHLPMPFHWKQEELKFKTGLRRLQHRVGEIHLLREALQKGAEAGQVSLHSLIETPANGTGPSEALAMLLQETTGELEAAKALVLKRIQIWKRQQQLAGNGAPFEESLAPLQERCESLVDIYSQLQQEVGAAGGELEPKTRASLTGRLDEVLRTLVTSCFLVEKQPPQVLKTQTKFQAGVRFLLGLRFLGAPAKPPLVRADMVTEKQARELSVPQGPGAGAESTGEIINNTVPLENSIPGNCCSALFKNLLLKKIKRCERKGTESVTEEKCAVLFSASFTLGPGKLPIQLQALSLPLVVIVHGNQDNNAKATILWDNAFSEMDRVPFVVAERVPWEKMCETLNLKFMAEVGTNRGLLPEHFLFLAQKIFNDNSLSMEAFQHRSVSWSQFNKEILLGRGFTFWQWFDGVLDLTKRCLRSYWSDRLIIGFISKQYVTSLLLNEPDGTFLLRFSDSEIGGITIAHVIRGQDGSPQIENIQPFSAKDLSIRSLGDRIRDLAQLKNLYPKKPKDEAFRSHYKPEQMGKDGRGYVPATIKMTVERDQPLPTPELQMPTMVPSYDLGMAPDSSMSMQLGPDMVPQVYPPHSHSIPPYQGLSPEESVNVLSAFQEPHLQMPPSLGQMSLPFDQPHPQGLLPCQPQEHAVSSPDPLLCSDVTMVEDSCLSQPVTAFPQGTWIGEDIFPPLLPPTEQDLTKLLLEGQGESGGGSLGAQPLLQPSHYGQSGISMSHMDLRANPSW
Put plainly: MSD-pSTAT-PBMC Assay (pSTAT6, IL-4 stimulated). The settings on record: compound 3 hrs, then 1 ng/mL IL-4 for 10 min. Format: cell-based. The gist of the method: as §1

Molecules are shown by their SMILES. A value given as a limit tells only on which side of the number the result lay.

T1 sequence (P40763 whole entry): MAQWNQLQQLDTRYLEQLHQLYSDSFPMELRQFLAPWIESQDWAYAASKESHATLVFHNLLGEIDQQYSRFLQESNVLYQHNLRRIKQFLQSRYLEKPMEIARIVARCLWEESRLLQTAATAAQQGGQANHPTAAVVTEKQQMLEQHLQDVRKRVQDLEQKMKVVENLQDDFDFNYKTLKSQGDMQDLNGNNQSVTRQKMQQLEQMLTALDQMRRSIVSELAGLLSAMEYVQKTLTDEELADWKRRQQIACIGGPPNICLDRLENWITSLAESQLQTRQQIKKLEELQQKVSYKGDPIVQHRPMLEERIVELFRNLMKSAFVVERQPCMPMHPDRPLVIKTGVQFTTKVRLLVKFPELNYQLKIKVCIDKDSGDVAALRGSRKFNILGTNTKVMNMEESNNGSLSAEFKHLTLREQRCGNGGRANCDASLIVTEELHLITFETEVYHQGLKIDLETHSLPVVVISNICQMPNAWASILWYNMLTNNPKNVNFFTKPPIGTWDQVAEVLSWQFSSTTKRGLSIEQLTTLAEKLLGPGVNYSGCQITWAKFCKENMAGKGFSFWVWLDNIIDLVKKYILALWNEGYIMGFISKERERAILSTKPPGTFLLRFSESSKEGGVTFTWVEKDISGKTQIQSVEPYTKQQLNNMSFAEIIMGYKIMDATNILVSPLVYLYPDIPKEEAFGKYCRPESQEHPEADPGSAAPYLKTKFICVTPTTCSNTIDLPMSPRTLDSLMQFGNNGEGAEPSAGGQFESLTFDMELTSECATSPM

`O=C(OCOP(=O)(OCOC(=O)OC1CCOCC1)C(F)(F)c1ccc2sc(C(=O)N[C@H]3C[C@@H]4C[C@@H]4C[C@H]4CC[C@@H](C(=O)N5CC(C(=O)N6CCOCC6)C5)N4C3=O)cc2c1)OC1CCOCC1` [Compound 162, (((difluoro(2-(((3S,6S,7aS, 8aR,9aR)-3-(3-(morpholine-4-carbonyl)azetidine-1-carbonyl)-5-oxodecahydro-1H-cyclopropa [d]pyrrolo[1,2-a]azocin-6-yl)carbamoyl)benzo[b]thiophen-5-yl)methyl)phosphoryl)bis(oxy)) bis(methylene) bis(tetrahydro-2H-pyran-4-yl) bis(carbonate)]: the IC50 is 0.1 to 1 µM on pSTAT3 (pY705-STAT3) and above 3 µM against pSTAT6 (pY641-STAT6).

Consider `CC(C)OC(=O)[C@H](Cc1ccccc1)NP(=O)(Oc1ccccc1)C(F)(F)c1ccc2sc(C(=O)N[C@H]3C[C@@H]4C[C@@H]4C[C@H]4CC[C@@H](C(=O)N5CC(C(=O)N6CCOCC6)C5)N4C3=O)cc2c1` (stereo partly drawn) [Compound 165, isopropyl ((difluoro(2-(((3S,6S,7aS, 8aR,9aR)-3-(3-(morpholine-4-carbonyl)azetidine-1-carbonyl)-5-oxodecahydro-1H-cyclopropa[d]pyrrolo[1,2-a]azocin-6-yl)carbamoyl)benzo[b]thiophen-5-yl)methyl) (phenoxy)phosphoryl)-L-phenylalaninate], for which the figures for the IC50 at pSTAT3 (pY705-STAT3) and against pSTAT6 (pY641-STAT6) were 1 to 3 µM and above 3 µM, respectively.

Consider `O=C(OCOP(=O)(OCOC(=O)OC1CCOCC1)C(F)(F)c1ccc2sc(C(=O)N[C@H]3C[C@H]4C[C@H]4C[C@H]4CC[C@@H](C(=O)N5CC(c6cccnc6)C5)N4C3=O)cc2c1)OC1CCOCC1` [Compound 166, (((difluoro(2-(((3S,6S,7aR, 8aS,9aR)-5-oxo-3-(3-(pyridin-3-yl)azetidine-1-carbonyl)decahydro-1H-cyclopropa[d]pyrrolo[1,2-a]azocin-6-yl)carbamoyl)benzo[b]thiophen-5-yl)methyl)phosphoryl)bis(oxy)) bis(methylene) bis(tetrahydro-2H-pyran-4-yl) bis(carbonate)], for which the IC50 is below 0.1 µM at pSTAT3 (pY705-STAT3) and above 3 µM against pSTAT6 (pY641-STAT6).

Turning to `COCC(C)(C)OC(=O)OCOP(=O)(OCOC(=O)OC(C)(C)COC)C(F)(F)c1ccc2sc(C(=O)N[C@H]3C[C@H]4C[C@H]4C[C@H]4CC[C@@H](C(=O)N5CC(c6cccnc6)C5)N4C3=O)cc2c1` [Compound 168, (((difluoro(2-(((3S,6S,7aR, 8aS,9aR)-5-oxo-3-(3-(pyridin-3-yl)azetidine-1-carbonyl)decahydro-1H-cyclopropa[d]pyrrolo[1,2-a]azocin-6-yl)carbamoyl)benzo[b]thiophen-5-yl)methyl)phosphoryl)bis(oxy)) bis(methylene) bis(1-methoxy-2-methylpropan-2-yl) bis(carbonate)], the IC50 on pSTAT3 (pY705-STAT3) is below 0.1 µM; on pSTAT6 (pY641-STAT6) it was above 3 µM.

On to `COCCCOC(=O)OCOP(=O)(OCOC(=O)OCCCOC)C(F)(F)c1ccc2sc(C(=O)N[C@H]3C[C@@H]4C[C@@H]4C[C@H]4CC[C@@H](C(=O)N5CC(C(=O)N6CCOCC6)C5)N4C3=O)cc2c1` [Compound 169, (((difluoro(2-(((3S,6S,7aS, 8aR,9aR)-3-(3-(morpholine-4-carbonyl)azetidine-1-carbonyl)-5-oxodecahydro-1H-cyclopropa [d]pyrrolo[1,2-a]azocin-6-yl)carbamoyl)benzo[b]thiophen-5-yl)methyl)phosphoryl)bis(oxy)) bis(methylene) bis(3-methoxypropyl) bis(carbonate)], for which the IC50 is 0.1 to 1 µM on pSTAT3 (pY705-STAT3) and above 3 µM against pSTAT6 (pY641-STAT6).

For `CC(C)(C)OC(=O)OCOP(=O)(OCOC(=O)OC(C)(C)C)C(F)(F)c1ccc2sc(C(=O)N[C@H]3C[C@@H]4C[C@@H]4C[C@H]4CC[C@@H](C(=O)N5CC(C(=O)N6CCOCC6)C5)N4C3=O)cc2c1` [Compound 170, di-tert-butyl ((((difluoro(2-(((3S,6S,7aS, 8aR,9aR)-3-(3-(morpholine-4-carbonyl)azetidine-1-carbonyl)-5-oxodecahydro-1H-cyclopropa[d]pyrrolo[1,2-a]azocin-6-yl)carbamoyl)benzo[b]thiophen-5-yl)methyl)phosphoryl)bis(oxy))bis(methylene)) bis(carbonate)], the IC50 is 1 to 3 µM on pSTAT3 (pY705-STAT3) and above 3 µM against pSTAT6 (pY641-STAT6).

As for `CC(C)(C)C(=O)SCCOP(=O)(OCCSC(=O)C(C)(C)C)C(F)(F)c1ccc2sc(C(=O)N[C@H]3C[C@@H]4C[C@@H]4C[C@H]4CC[C@@H](C(=O)N5CC(C(=O)N6CCOCC6)C5)N4C3=O)cc2c1` [Compound 171, S,S′-((((difluoro(2-(((3S,6S,7aS, 8aR,9aR)-3-(3-(morpholine-4-carbonyl)azetidine-1-carbonyl)-5-oxodecahydro-1H-cyclopropa[d]pyrrolo[1,2-a]azocin-6-yl)carbamoyl)benzo[b]thiophen-5-yl)methyl)phosphoryl)bis(oxy))bis(ethane-2,1-diyl)) bis(2,2-dimethyl-propanethioate)], the IC50 on pSTAT3 (pY705-STAT3) is below 0.1 µM; against pSTAT6 (pY641-STAT6), above 3 µM.

With `COCCOC(=O)OCOP(=O)(OCOC(=O)OCCOC)C(F)(F)c1ccc2sc(C(=O)N[C@H]3C[C@@H]4C[C@@H]4C[C@H]4CC[C@@H](C(=O)N5CC(C(=O)N6CCOCC6)C5)N4C3=O)cc2c1` [Compound 172, (((difluoro(2-(((3S,6S,7aS, 8aR,9aR)-3-(3-(morpholine-4-carbonyl)azetidine-1-carbonyl)-5-oxodecahydro-1H-cyclopropa [d]pyrrolo[1,2-a]azocin-6-yl)carbamoyl)benzo[b]thiophen-5-yl)methyl)phosphoryl)bis(oxy)) bis(methylene) bis(2-methoxyethyl) bis(carbonate)], the IC50 at pSTAT3 (pY705-STAT3) was 0.1 to 1 µM; on pSTAT6 (pY641-STAT6), above 3 µM.

`C[C@H](NP(=O)(Oc1ccccc1)C(F)(F)c1ccc2sc(C(=O)N[C@H]3C[C@@H]4C[C@@H]4C[C@H]4CC[C@@H](C(=O)N5CC(C(=O)N6CCOCC6)C5)N4C3=O)cc2c1)C(=O)OCc1ccccc1` (stereo partly drawn) [Compound 173, benzyl ((difluoro(2-(((3S,6S,7aS, 8aR,9aR)-3-(3-(morpholine-4-carbonyl)azetidine-1-carbonyl)-5-oxodecahydro-1H-cyclopropa[d]pyrrolo[1,2-a]azocin-6-yl)carbamoyl)benzo[b]thiophen-5-yl)methyl) (phenoxy)phosphoryl)-L-alaninate]: the IC50 on pSTAT3 (pY705-STAT3) was 1 to 3 µM; against pSTAT6 (pY641-STAT6), above 3 µM.

Take `CC(C)(C)C(=O)OCOP(=O)(OCOC(=O)C(C)(C)C)C(F)(F)c1ccc2sc(C(=O)N[C@H]3C[C@@H]4C[C@@H]4C[C@H]4CC[C@@H](C(=O)Nc5ccc(-c6ccccc6)cc5)N4C3=O)cc2c1` [Compound 175, ((((2-(((3S,6S,7aS, 8aR,9aR)-3-([1,1′-biphenyl]-4-ylcarbamoyl)-5-oxodecahydro-1H-cyclopropa[d]pyrrolo[1,2-a]azocin-6-yl)carbamoyl)benzo[b]thiophen-5-yl)difluoro-methyl)phosphoryl)bis(oxy)) bis(methylene) bis(2,2-dimethyl-propanoate)]: the IC50 at pSTAT3 (pY705-STAT3) was 0.1 to 1 µM; against pSTAT6 (pY641-STAT6), above 3 µM.

`CC(C)OC(=O)OCOP(=O)(OCOC(=O)OC(C)C)C(F)(F)c1ccc2sc(C(=O)N[C@H]3C[C@@H]4C[C@@H]4C[C@H]4CC[C@@H](C(=O)N5CC(C(=O)N6CCOCC6)C5)N4C3=O)cc2c1` [Compound 176, (((difluoro(2-(((3S,6S,7aS, 8aR,9aR)-3-(3-(morpholine-4-carbonyl)azetidine-1-carbonyl)-5-oxodecahydro-1H-cyclopropa[d]pyrrolo[1,2-a]azocin-6-yl)carbamoyl)benzo[b]thiophen-5-yl)methyl)phosphoryl)bis(oxy)) bis(methylene) diisopropyl bis(carbonate)]: the IC50 is below 0.1 µM on pSTAT3 (pY705-STAT3) and above 3 µM on pSTAT6 (pY641-STAT6).

In the case of `CCOC(=O)CCCOP(=O)(OCCCC(=O)OCC)C(F)(F)c1ccc2sc(C(=O)N[C@H]3C[C@@H]4C[C@@H]4C[C@H]4CC[C@@H](C(=O)N5CC(C(=O)N6CCOCC6)C5)N4C3=O)cc2c1` [Compound 177, diethyl 4,4′-(((difluoro(2-(((3S,6S,7aS, 8aR,9aR)-3-(3-(morpholine-4-carbonyl)azetidine-1-carbonyl)-5-oxodecahydro-1H-cyclopropa[d]pyrrolo[1,2-a]azocin-6-yl)carbamoyl)benzo[b]thiophen-5-yl)methyl)phosphoryl)bis(oxy)) dibutyrate], the IC50 on pSTAT3 (pY705-STAT3) and against pSTAT6 (pY641-STAT6) was above 3 µM each time.

The values are drawn from patent US20250215030A1, “STAT MODULATORS AND USES THEREOF” (Recludix Pharma, Inc., priority 2022, published 2025).
